Assays:
[1] = target: T1, mouse RORγ (Mus musculus, UniProt P51450); assay: Luciferase reporter gene assay of inhibitory effect against RORγ transcriptional activity (GAL4-mRORγ plasmid in CHO cells); assay type: cell-based; conditions: read-out: LUC EC50 mRORg
T1 construct: mouse, NM_011281.2 and from Ile251 to Lys516; expressed in transfected cells; host or cells: CHO cells (transient co-transfection with pG5-Luc reporter)
T1 sequence (P51450 251-516): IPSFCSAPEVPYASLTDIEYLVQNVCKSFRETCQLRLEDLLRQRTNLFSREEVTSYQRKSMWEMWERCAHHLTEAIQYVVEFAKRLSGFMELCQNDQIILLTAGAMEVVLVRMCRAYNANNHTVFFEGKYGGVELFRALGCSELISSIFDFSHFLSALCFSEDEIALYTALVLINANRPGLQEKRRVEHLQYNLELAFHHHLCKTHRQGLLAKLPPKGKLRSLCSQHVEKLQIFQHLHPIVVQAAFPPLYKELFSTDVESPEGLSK
Procedure, shortened: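 CHO cells transiently co-transfected with GAL4-mouse RORγ LBD (Ile251–Lys516) and GAL4-dependent luciferase reporter; eight compound concentrations, 0.1% DMSO, 2 days at 37 °C. Luminescence as %-of-vehicle control; EC50 by curve fit, cytotoxic concentrations excluded.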

[2] = target: T2, human RORγ (Homo sapiens, UniProt P51449); assay: Luciferase reporter gene assay of inhibitory effect against RORγ transcriptional activity (GAL4-hRORγ plasmid in CHO cells); assay type: cell-based; conditions: read-out: LUC EC50 hRORg
T2 construct: human, NM_005060.3 and from Ser253 to Lys518; expressed in transfected cells; host or cells: CHO cells (transient co-transfection with pG5-Luc reporter)
T2 sequence (P51449 253-518): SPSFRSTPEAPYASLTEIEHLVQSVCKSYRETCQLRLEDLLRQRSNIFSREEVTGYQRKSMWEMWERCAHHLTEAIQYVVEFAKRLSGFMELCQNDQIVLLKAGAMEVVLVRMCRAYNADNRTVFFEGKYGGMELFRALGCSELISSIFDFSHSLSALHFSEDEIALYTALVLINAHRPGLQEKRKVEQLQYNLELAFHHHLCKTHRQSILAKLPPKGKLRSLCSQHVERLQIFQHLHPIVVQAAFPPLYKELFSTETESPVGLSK

Row | Structure (SMILES) | EC50 [1] [µM] | EC50 [2] [µM]
1 | Cc1ccc(NC(=O)C[C@H](C[C@H](C)O)c2nnc([C@H]3C[C@@H](CC(C)C)C3)n2C2CC2)c(C)c1 [Example F-574] | < 3 | < 3
2 | Cc1ccc(NC(=O)C[C@H](OC(C)C)c2nnc(-c3cc(CC(C)C)on3)n2C2CC2)c(C)c1 [Example F-575] | < 3 | < 3
3 | Cc1cc(F)ccc1NC(=O)C[C@H](OC(C)C)c1nnc(-c2cc(CC(C)C)on2)n1C1CC1 [Example F-576] | < 3 | < 3
4 | Cc1ccc(NC(=O)C[C@H](CCO)c2noc([C@H]3C[C@@H](CC(C)C)C3)c2C2CC2)c(C)c1 [Example F-578] | < 3 | < 3
5 | Cc1ccc(NC(=O)C[C@@H](CCO)c2noc([C@H]3C[C@@H](CC(C)C)C3)c2C2CC2)c(C)c1 [Example F-579] | < 3 | < 3
6 | Cc1ccc(NC(=O)CC(CCO)c2noc(C3CC(CC(C)C)C3)c2C2CC2)c(C)c1 (stereo not drawn) [Example F-580] | < 3 | < 3
7 | Cc1ccc(NC(=O)C[C@H](OCc2ccccc2)c2nnc([C@H]3C[C@@H](CC(C)C)C3)n2C2CC2)c(C)c1 [Example F-581] | < 3 | < 3
8 | Cc1ccc(NC(=O)C[C@H](OCC(C)C)c2nnc([C@H]3C[C@@H](CC(C)C)C3)n2C2CC2)c(C)c1 [Example F-582] | < 3 | < 3
9 | CC(C)Cc1cc(-c2nnc([C@H](CC(=O)Nc3cccc4c3OC(F)(F)O4)OC(C)C)n2C2CC2)no1 [Example F-584] | < 3 | > 3
10 | Cc1ccc(NC(=O)C[C@H](CC(C)C)c2nnc(-c3cc(CC(C)C)on3)n2C2CC2)c(C)c1 [Example F-586] | < 3 | < 3
11 | Cc1ccc(NC(=O)C[C@H](CCO)c2nnc([C@H]3C[C@@H](CC(F)(F)F)C3)n2C2CC2)c(C)c1 [Example F-587] | < 3 | < 3
12 | Cc1cc(F)ccc1NC(=O)C[C@H](CCO)c1nnc([C@H]2C[C@@H](CC(F)(F)F)C2)n1C1CC1 [Example F-588] | < 3 | > 3
13 | Cc1c(F)cccc1NC(=O)C[C@H](CCO)c1nnc([C@H]2C[C@@H](CC(F)(F)F)C2)n1C1CC1 [Example F-589] | > 3 | > 3
14 | Cc1ccc(NC(=O)C[C@H](CC(C)C)c2nnc([C@H]3C[C@@H](CC(C)C)C3)n2C2CC2)c(C)c1 [Example F-590] | < 3 | < 3
15 | Cc1ccc(NC(=O)C[C@H](CC(C)C)c2nnc(-c3cc(CC(C)C)no3)n2C2CC2)c(C)c1 [Example F-591] | < 3 | < 3
16 | Cc1cc(F)ccc1NC(=O)[C@H]1CC(F)(F)C[C@@H]1c1nnc(-c2cc(CC(C)C)on2)n1C1CC1 [Example F-592] | < 3 | < 3
17 | Cc1cc(F)ccc1NC(=O)[C@@H]1CC(F)(F)C[C@H]1c1nnc(-c2cc(CC(C)C)on2)n1C1CC1 [Example F-593] | < 3 | > 3
18 | Cc1cc(F)ccc1NC(=O)C[C@H](CCO)c1nnc([C@H]2C[C@@H](CC(C)C)C2)n1C1CC1 [Example F-594] | < 3 | < 3
19 | Cc1ccc(NC(=O)[C@H]2CN(CC(C)C)C[C@@H]2c2nnc([C@H]3C[C@@H](CC(C)C)C3)n2C2CC2)c(C)c1 [Example F-596] | < 3 | < 3
20 | Cc1ccc(NC(=O)[C@H]2CN(C(C)C)C[C@@H]2c2nnc([C@H]3C[C@@H](CC(C)C)C3)n2C2CC2)c(C)c1 [Example F-597] | < 3 | < 3
21 | Cc1ccc(NC(=O)C[C@@H](CC(C)(C)O)c2nnc([C@H]3C[C@@H](CC(C)C)C3)n2C2CC2)c(C)c1 [Example F-598] | > 3 | > 3
22 | Cc1ccc(NC(=O)C[C@H](CC(C)(C)O)c2nnc([C@H]3C[C@@H](CC(C)C)C3)n2C2CC2)c(C)c1 [Example F-599] | < 3 | < 3
23 | CC(=O)N1C[C@H](C(=O)Nc2ccc(F)cc2C)[C@@H](c2nnc([C@H]3C[C@@H](CC(C)C)C3)n2C2CC2)C1 [Example F-600] | < 3 | < 3
24 | Cc1ccc(NC(=O)C[C@H](CCO)c2nnc(C3CC4(CCC(C)(C)CC4)C3)n2C2CC2)c(C)c1 [Example F-602] | < 3 | < 3

— patent publication US20160137639A1, “TRIAZOLE-ISOXAZOLE COMPOUND AND MEDICAL USE THEREOF” (JAPAN TOBACCO INC., priority 2012, published 2016)
